What was measured:
Assay in all cases: Kinase Profiler 10 μM panel
[1] = target: PKCι(h) (Homo sapiens (Human), UniProt P41743)
Method: (§1) In vitro kinase assays were conducted using Kinase Profiler services provided by Eurofins. The experimental method was as follows: the small molecule compound to be tested (0.001-10 μM), the protein kinase to be tested were incubated with a buffer containing substrate, 10 mM magnesium acetate, and [γ-^33P-ATP], the reaction was started by adding Mg\TPmix, after incubation for a period of time at room temperature, a 3% phosphate solution was added to the buffer to stop the reaction. Subsequently, 10 μL of the reaction mixture was quantitatively pipetted onto P30 filter paper, which was washed three times with 75 mM phosphate solution and then once with methanol. The P30 filter paper was air-dried and scintillation fluid was added for scintillation counting.

[2] = target: PDK1(h) (Homo sapiens (Human), UniProt O15530)
Method: as §1

[3] = target: JNK1α1(h) (Homo sapiens (Human), UniProt P45983)
Method: as §1

[4] = tested on: ChaK1(h)
Method: as §1

[5] = target: CDK3/cyclinE(h) (Homo sapiens (Human), UniProt Q00526)
Method: as §1

[6] = target: Tie2 (h) (Homo sapiens (Human), UniProt Q02763)
Method: as §1

[7] = target: MAPKAP-K3(h) (Homo sapiens (Human), UniProt Q16644)
Method: as §1

[8] = target: PKCμ(h) (Homo sapiens (Human), UniProt Q15139)
Method: as §1

[9] = target: ALK1(h) (Homo sapiens (Human), UniProt P37023)
Method: as §1

[10] = target: GRK6(h) (Homo sapiens (Human), UniProt P43250)
Method: as §1

[11] = target: DCAMKL2(h) (Homo sapiens (Human), UniProt Q8N568)
Method: as §1

[12] = target: SGK2(h) (Homo sapiens (Human), UniProt Q9HBY8)
Sequence of SGK2(h) (Q9HBY8 whole entry): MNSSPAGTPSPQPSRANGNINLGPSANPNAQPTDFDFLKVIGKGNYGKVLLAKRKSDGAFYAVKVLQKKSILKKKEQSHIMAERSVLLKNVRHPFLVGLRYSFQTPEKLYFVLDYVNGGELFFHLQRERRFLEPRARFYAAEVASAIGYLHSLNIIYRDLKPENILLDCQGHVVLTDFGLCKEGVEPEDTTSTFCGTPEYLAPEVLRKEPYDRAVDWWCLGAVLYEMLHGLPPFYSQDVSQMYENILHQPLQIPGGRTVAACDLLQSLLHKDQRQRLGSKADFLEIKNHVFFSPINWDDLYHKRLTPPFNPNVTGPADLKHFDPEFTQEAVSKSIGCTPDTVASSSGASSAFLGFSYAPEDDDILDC
Method: as §1

[13] = target: CDK16/cyclinY(h) (Homo sapiens (Human), UniProt Q00536)
Method: as §1

[14] = target: HIPK3(h) (Homo sapiens (Human), UniProt Q9H422)
Method: as §1

[15] = target: PI3KC2g(h) (Homo sapiens (Human), UniProt O75747)
Method: as §1

[16] = target: CLK2(h) (Homo sapiens (Human), UniProt P49760)
Method: as §1

[17] = target: Src(1-530)(h) (Homo sapiens (Human), UniProt P12931)
Method: as §1

[18] = target: ACTR2(h) (Homo sapiens (Human), UniProt P27037)
Sequence of ACTR2(h) (P27037 20-513): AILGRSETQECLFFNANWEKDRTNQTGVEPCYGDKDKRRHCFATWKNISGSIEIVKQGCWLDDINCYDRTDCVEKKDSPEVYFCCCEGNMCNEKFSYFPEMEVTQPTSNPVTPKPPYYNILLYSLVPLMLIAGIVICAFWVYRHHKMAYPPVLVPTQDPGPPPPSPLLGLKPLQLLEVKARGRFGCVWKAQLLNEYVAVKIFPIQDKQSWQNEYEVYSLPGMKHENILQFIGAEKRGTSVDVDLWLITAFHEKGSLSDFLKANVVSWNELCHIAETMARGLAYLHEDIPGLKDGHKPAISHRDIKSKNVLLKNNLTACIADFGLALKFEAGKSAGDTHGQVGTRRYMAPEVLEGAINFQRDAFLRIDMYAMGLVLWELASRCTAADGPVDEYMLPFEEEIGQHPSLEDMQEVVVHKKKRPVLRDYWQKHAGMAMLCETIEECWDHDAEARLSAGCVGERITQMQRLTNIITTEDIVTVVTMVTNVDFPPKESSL
Method: as §1

[19] = target: CDK2/cyclinE(h) (Homo sapiens (Human), UniProt P24941)
Method: as §1

[20] = target: ICK(h) (Homo sapiens (Human), UniProt Q9UPZ9)
Sequence of ICK(h) (Q9UPZ9 whole entry): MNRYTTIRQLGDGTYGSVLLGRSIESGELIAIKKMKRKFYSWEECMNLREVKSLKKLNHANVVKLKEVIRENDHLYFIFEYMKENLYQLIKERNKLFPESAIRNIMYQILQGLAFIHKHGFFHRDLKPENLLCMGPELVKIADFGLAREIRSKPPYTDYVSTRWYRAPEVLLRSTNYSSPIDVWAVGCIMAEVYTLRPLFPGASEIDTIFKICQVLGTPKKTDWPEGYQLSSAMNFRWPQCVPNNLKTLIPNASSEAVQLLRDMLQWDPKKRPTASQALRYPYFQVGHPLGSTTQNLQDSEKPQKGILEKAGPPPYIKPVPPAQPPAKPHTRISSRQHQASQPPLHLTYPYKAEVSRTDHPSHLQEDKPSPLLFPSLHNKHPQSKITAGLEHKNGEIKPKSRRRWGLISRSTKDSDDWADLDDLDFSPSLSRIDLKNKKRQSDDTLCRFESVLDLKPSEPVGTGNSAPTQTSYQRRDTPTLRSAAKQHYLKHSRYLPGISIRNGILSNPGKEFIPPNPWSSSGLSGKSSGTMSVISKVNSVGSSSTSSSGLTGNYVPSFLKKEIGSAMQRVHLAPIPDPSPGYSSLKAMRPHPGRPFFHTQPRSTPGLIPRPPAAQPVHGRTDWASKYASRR
Method: as §1

[21] = target: eEF-2K(h) (Homo sapiens (Human), UniProt O00418)
Method: as §1

[22] = target: Rsk1(h) (Homo sapiens (Human), UniProt Q15418)
Sequence of Rsk1(h) (Q15418 whole entry): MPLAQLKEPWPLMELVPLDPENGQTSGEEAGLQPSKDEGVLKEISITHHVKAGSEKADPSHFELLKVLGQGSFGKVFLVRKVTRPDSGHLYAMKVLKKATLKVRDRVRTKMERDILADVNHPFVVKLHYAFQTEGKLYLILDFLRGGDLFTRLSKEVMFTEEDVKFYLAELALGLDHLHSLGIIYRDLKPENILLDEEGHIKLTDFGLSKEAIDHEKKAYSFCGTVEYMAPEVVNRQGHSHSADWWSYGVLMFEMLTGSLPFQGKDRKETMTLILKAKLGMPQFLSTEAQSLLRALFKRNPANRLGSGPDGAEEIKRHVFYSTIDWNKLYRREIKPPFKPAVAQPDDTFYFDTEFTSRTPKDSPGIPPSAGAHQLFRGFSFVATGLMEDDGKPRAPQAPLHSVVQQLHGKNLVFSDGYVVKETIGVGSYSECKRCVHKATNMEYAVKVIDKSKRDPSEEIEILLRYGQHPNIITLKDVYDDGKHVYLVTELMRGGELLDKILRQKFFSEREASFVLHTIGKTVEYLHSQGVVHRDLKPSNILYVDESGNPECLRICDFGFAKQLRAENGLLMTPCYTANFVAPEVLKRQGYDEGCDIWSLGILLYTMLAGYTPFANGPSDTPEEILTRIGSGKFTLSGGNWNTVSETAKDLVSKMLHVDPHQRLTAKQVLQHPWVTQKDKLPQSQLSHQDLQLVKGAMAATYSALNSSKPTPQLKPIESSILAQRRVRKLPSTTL
Method: as §1

[23] = target: TAO1(h) (Homo sapiens (Human), UniProt Q7L7X3)
Method: as §1

[24] = target: Abl (Q252H)(h) (Homo sapiens (Human), UniProt P00519, Q252H)
Method: as §1

[25] = target: RIPK1(h) (Homo sapiens (Human), UniProt Q13546)
Sequence of RIPK1(h) (Q13546 whole entry): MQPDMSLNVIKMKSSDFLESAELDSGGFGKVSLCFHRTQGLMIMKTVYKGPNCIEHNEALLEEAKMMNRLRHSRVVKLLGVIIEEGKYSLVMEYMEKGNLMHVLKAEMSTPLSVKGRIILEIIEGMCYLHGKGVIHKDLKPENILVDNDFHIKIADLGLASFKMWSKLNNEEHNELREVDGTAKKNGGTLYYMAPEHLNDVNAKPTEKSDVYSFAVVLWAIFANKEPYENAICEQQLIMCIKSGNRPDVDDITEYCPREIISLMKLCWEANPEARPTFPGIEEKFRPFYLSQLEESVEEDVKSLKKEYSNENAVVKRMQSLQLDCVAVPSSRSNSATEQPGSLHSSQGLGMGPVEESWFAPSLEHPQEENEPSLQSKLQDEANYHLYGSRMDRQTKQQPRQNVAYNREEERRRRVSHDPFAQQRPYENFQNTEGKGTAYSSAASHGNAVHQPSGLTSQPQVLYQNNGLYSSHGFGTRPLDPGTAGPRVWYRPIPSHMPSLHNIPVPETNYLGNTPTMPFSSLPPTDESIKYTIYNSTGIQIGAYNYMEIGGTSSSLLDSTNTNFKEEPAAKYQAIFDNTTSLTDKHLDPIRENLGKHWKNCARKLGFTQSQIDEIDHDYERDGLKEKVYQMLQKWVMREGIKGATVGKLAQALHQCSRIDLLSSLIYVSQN
Method: as §1

[26] = target: EphA5(h) (Homo sapiens (Human), UniProt P54756)
Method: as §1

[27] = target: CDK9/cyclin T1(h) (Homo sapiens (Human), UniProt P50750)
Method: as §1

[28] = target: PAK3(h) (Homo sapiens (Human), UniProt O75914)
Method: as §1

[29] = target: Met(M1268T)(h) (Homo sapiens (Human), UniProt P08581, M1250T)
Sequence of Met(M1268T)(h) (P08581 956-1390 M1250T limits assumed): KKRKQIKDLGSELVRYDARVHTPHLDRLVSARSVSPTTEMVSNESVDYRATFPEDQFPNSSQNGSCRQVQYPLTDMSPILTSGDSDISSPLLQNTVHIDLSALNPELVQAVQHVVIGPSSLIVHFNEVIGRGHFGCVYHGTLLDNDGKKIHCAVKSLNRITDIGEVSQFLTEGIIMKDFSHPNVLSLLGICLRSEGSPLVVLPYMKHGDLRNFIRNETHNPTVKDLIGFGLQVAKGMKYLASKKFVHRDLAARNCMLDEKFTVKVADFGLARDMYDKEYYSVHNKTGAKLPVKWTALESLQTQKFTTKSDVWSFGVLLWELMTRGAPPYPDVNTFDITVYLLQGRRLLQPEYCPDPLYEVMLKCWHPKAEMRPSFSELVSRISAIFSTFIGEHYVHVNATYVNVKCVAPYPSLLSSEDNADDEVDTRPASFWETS
Method: as §1

[30] = target: GRK7(h) (Homo sapiens (Human), UniProt Q8WTQ7)
Sequence of GRK7(h) (Q8WTQ7 whole entry): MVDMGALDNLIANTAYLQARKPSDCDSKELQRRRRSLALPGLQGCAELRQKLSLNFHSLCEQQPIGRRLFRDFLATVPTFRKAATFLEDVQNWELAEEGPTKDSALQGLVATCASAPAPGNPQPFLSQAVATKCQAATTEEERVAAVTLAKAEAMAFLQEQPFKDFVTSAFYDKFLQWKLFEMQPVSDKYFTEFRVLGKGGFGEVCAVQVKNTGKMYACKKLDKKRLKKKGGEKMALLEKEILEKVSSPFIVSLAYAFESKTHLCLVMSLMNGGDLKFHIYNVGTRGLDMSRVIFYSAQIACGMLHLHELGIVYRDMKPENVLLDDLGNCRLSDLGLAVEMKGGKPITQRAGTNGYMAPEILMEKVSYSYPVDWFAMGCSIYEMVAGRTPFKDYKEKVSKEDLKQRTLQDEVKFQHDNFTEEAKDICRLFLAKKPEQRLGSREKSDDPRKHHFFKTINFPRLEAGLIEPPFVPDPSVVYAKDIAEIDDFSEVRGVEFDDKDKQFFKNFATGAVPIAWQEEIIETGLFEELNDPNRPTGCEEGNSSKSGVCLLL
Method: as §1

[31] = target: PKCθ(h) (Homo sapiens (Human), UniProt Q04759)
Method: as §1

[32] = target: CK1ϵ(h) (Homo sapiens (Human), UniProt P49674)
Method: as §1

[33] = target: ULK3(h) (Homo sapiens (Human), UniProt Q6PHR2)
Sequence of ULK3(h) (Q6PHR2 whole entry): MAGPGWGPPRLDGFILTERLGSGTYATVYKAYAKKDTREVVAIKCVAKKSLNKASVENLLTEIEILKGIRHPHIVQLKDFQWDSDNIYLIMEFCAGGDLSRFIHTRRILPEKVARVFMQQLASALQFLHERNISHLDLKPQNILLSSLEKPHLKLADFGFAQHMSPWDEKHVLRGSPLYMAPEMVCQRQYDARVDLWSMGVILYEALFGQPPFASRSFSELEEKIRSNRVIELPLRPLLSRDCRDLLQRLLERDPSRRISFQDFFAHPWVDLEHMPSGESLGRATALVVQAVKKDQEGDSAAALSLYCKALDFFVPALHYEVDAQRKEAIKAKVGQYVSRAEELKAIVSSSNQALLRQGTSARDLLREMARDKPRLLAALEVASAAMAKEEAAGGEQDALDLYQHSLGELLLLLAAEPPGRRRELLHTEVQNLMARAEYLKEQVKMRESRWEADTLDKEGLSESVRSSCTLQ
Method: as §1

[34] = target: CaMKIIα(h) (Homo sapiens (Human), UniProt Q9UQM7)
Method: as §1

Sequence of PDK1(h) (O15530 whole entry): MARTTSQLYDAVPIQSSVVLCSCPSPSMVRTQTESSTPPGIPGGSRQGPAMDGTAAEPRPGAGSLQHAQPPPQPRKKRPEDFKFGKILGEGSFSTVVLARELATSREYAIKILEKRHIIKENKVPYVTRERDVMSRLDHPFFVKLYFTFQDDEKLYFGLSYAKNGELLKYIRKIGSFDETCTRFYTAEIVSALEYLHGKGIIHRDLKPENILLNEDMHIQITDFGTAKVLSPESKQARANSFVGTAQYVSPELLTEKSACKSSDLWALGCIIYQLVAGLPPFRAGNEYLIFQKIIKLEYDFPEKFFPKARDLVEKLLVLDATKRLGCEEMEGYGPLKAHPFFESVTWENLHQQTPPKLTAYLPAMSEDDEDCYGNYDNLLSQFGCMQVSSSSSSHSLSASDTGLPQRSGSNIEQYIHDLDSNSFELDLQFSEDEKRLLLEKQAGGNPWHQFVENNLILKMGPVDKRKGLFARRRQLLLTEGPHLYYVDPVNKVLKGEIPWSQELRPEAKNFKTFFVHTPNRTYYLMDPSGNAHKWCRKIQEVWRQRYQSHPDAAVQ

C[C@H](NC(=O)c1c[nH]c2ccc(-c3ccc4nc(NC(=O)C5CC5)sc4c3)cc12)c1cccc(F)c1 [Compound 34, (S)-5-(2-(cyclopropanecarboxamido)benzo[d]thiazol-6-yl)-N-(1-(3-fluorophenyl)ethyl)-1H-indole-3-carboxamide]
Inhibition ratio [1]: −4%
Inhibition ratio [2]: 19%
Inhibition ratio [3]: 15%
Inhibition ratio [4]: 5%
Inhibition ratio [5]: −13%
Inhibition ratio [6]: 96%
Inhibition ratio [7]: −1%
Inhibition ratio [8]: 6%
Inhibition ratio [9]: 50%
Inhibition ratio [10]: 0%
Inhibition ratio [11]: 6%
Inhibition ratio [12]: 2%
Inhibition ratio [13]: −30%
Inhibition ratio [14]: 79%
Inhibition ratio [15]: 76%
Inhibition ratio [16]: 77%
Inhibition ratio [17]: 54%
Inhibition ratio [18]: 6%
Inhibition ratio [19]: 9%
Inhibition ratio [20]: 7%
Inhibition ratio [21]: −41%
Inhibition ratio [22]: 37%
Inhibition ratio [23]: 24%
Inhibition ratio [24]: 97%
Inhibition ratio [25]: 100%
Inhibition ratio [26]: 40%
Inhibition ratio [27]: 41%
Inhibition ratio [28]: −1%
Inhibition ratio [29]: 93%
Inhibition ratio [30]: 4%
Inhibition ratio [31]: −24%
Inhibition ratio [32]: 35%
Inhibition ratio [33]: 30%
Inhibition ratio [34]: 5%

C[C@H](NC(=O)c1cn(C)c2ccc(-c3ccn4nc(NC(=O)C5CC5)nc4c3)cc12)c1cccc(F)c1 [Compound 94, (S)-5-(2-(cyclopropanecarboxamido)-[1,2,4]triazolo[1,5-a]pyridin-7-yl)-N-(1-(3-fluorophenyl)ethyl)-1-methyl-1H-indole-3-carboxamide]
Inhibition ratio/% [1]: 54%
Inhibition ratio/% [2]: 18%
Inhibition ratio/% [3]: 53%
Inhibition ratio/% [4]: 66%
Inhibition ratio/% [5]: 65%
Inhibition ratio/% [6]: 30%
Inhibition ratio/% [7]: −12%
Inhibition ratio/% [8]: 50%
Inhibition ratio/% [9]: 0%
Inhibition ratio/% [10]: 2%
Inhibition ratio/% [11]: 74%
Inhibition ratio/% [12]: −18%
Inhibition ratio/% [13]: 51%
Inhibition ratio/% [14]: 62%
Inhibition ratio/% [15]: 24%
Inhibition ratio/% [16]: 77%
Inhibition ratio/% [17]: 20%
Inhibition ratio/% [18]: −3%
Inhibition ratio/% [19]: 36%
Inhibition ratio/% [20]: 52%
Inhibition ratio/% [21]: 26%
Inhibition ratio/% [22]: 41%
Inhibition ratio/% [23]: 50%
Inhibition ratio/% [24]: 29%
Inhibition ratio/% [25]: 100%
Inhibition ratio/% [26]: 4%
Inhibition ratio/% [27]: 61%
Inhibition ratio/% [28]: −19%
Inhibition ratio/% [29]: −10%
Inhibition ratio/% [30]: −16%
Inhibition ratio/% [31]: 7%
Inhibition ratio/% [32]: 59%
Inhibition ratio/% [33]: 3%
Inhibition ratio/% [34]: 76%

Source: patent US20230365546A1, “5-SUBSTITUTED INDOLE 3-AMIDE DERIVATIVES, PREPARATION METHOD AND USE THEREOF” (ORIGIANT PHARMACEUTICAL CO., LTD, priority 2020, published 2023)
